This passage reports inhibition and Activity results from ChEMBL document CHEMBL4130413, “1-Aryl-1H- and 2-aryl-2H-1,2,3-triazole derivatives blockade P2X7 receptor in vitro and inflammatory response in vivo” (Eur J Med Chem, 2017).

The inhibition is the change of the read-out against control, counted positive when it falls.

For data set [1], the target named is T1, P2X purinoceptor 7 (Homo sapiens) (UniProt Q99572).
T1 sequence (whole entry): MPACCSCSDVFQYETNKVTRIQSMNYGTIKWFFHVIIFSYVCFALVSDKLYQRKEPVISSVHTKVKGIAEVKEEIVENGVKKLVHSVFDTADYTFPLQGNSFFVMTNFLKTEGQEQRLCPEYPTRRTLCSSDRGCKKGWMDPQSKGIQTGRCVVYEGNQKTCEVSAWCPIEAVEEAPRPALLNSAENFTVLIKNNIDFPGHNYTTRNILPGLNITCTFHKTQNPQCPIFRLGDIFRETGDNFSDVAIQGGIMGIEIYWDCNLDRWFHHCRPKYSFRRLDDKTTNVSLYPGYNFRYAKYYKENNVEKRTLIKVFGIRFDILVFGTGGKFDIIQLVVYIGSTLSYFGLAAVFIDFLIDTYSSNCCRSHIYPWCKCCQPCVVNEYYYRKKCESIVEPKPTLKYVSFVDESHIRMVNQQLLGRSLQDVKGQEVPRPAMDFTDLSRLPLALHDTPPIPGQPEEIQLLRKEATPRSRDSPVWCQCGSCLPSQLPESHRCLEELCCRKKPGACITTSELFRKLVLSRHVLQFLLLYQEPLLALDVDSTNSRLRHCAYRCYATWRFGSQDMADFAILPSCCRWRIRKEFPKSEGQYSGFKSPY
The experiment in a line: Antagonist activity at human P2X7 receptor expressed in HEK293 cells assessed as inhibition of ATP-induced ethidium iodide uptake at 10 uM preincubated for 10 mins followed by ATP addition measured after 20 mins by FLIPR assay relative to 1 mM ATP. It counts as cell-based.

Data set [2] has as its target P2X purinoceptor 7 (Mus musculus) (UniProt Q9Z1M0). As to the kind of experiment: Antagonist activity at P2X7 receptor in Swiss mouse peritoneal macrophages assessed as inhibition of ATP-induced propidium iodide uptake at 10 uM after 30 mins by FLIPR assay relative to 1 mM ATP.
The test system of a further data set is Peritoneal macrophage. As to the kind of experiment: Toxicity in Swiss mouse peritoneal macrophages assessed as LDH release at 10 uM after 60 mins relative to 0.05% Triton X-100. In kind it is cell-based. Conditions: 1 h. Background: LDH in the medium is a marker of cell lysis.

With `O=C(OCc1cn(-c2ccccc2)nn1)c1ccccc1`, the inhibition turned out to be 16.1% in data set [1] and 32.1% in data set [2]. Moreover, in the data set with Peritoneal macrophage, the Activity turned out to be 58.1%.
The matching figures for `CCCCOCc1cn(-c2ccc(Cl)cc2)nn1`: 15.1%, 35.8% and 30.33%.
Taken in the same sequence, the figures for `CCCCCC(=O)OCc1cn(-c2ccccc2)nn1` were 18.2%, 44.6% and 15.83%.
With `CCCCCCCCCC(=O)OCc1cnn(-c2ccccc2)n1`, the figures for the inhibition in data set [1] and in data set [2] were 19.2% and 29.5%, respectively. Moreover, the Activity in the data set with Peritoneal macrophage is on record as 42.5%.
`CC(=O)OCc1cnn(-c2ccccc2)n1`: the inhibition in data set [1] was found to be 80.1%; in data set [2], 73.5%. Moreover, the Activity in the data set on Peritoneal macrophage came to 38.5%.
Regarding `CCCCCCCCCC(=O)OCc1cn(-c2ccccc2)nn1`, the inhibition worked out at 23.2% in data set [1] and 60% in data set [2]. In the data set on Peritoneal macrophage, the Activity came to 42.53%.
As for `CC(=O)OCc1cn(-c2ccccc2)nn1`, the inhibition in data set [1] stood at 81%; in data set [2] it was 84%. Further, the Activity in the data set on Peritoneal macrophage is on record as 36.39%.
Taken in the same sequence, the figures for `O=C(OCc1cnn(-c2ccccc2)n1)c1ccccc1` were 88.2%, 81.3% and 36.94%.
As to `O=C(OCc1cn(-c2ccc(Cl)cc2)nn1)c1ccccc1`, the inhibition is 26.8% in data set [1] and 60.6% in data set [2]. Moreover, the Activity in the data set with Peritoneal macrophage is 45.73%.
`CCOCc1cn(-c2cc(Cl)ccc2Cl)nn1`: the inhibition in data set [1] was found to be 45.3%; in data set [2], 75.5%. For the same molecule, the Activity in the data set with Peritoneal macrophage is listed as 42.66%.
Consider `OCc1cn(-c2cc(Cl)cc(Cl)c2)nn1`, for which the inhibition in data set [1] is 41.1%; in data set [2], 11.4%. In the data set with Peritoneal macrophage, the Activity was found to be 30.55%.
Take `CCCCCCCCCC(=O)OCc1cn(-c2cc(Cl)ccc2Cl)nn1`: the inhibition was 1.17% in data set [1] and 9.86% in data set [2]. The Activity with Peritoneal macrophage stood at 10%.
Take `O=Cc1cnn(-c2ccccc2)n1`: the inhibition in data set [1] is 42.1%; in data set [2], 31.5%. Moreover, in the data set with Peritoneal macrophage, the Activity is on record as 41.65%.
`O/N=C/c1cn(-c2ccccc2)nn1`: the inhibition was determined as 64.3% in data set [1] and 58% in data set [2]. Further, the Activity in the data set with Peritoneal macrophage stood at 28.59%.
For `CC(=O)OCc1cn(-c2ccc(Cl)cc2)nn1`, the inhibition came out at 9.89% in data set [1] and 23.2% in data set [2]. In addition, in the data set on Peritoneal macrophage, the Activity was 19.66%.
The matching figures for `CC(=O)OCc1cn(-c2cc(Cl)ccc2Cl)nn1`: 71.2%, 76.6% and 32%.
Regarding `CCOCc1cn(-c2ccc(OC)cc2)nn1`, the inhibition in data set [1] was 45%; in data set [2], 44.8%. Besides, the Activity with Peritoneal macrophage was found to be 20.66%.
As for `COc1ccc(-n2cc(COC(C)=O)nn2)cc1`, the results for the inhibition in data set [1] and in data set [2] were 9.12% and 29.4%, respectively. For the same molecule, the Activity in the data set with Peritoneal macrophage stood at 15%.
For `CCCOCc1cn(-c2ccc(OC)cc2)nn1`, the inhibition in data set [1] stood at 35.8%; in data set [2], 15.6%. The Activity in the data set on Peritoneal macrophage is reported as 13.03%.
`O=C(OCc1cn(-c2cc(Cl)ccc2Cl)nn1)C1CCCC1`: the inhibition is 7.28% in data set [1] and 20.6% in data set [2]. Moreover, in the data set with Peritoneal macrophage, the Activity is 22.66%.
In the case of `COc1ccc(-n2cc(COC(=O)c3ccccc3)nn2)cc1`, the inhibition came to 10.6% in data set [1] and 24.4% in data set [2]. The Activity with Peritoneal macrophage is recorded as 10.66%.
Take `CCCCOCc1cnn(-c2ccccc2)n1`: the inhibition in data set [1] was 16.1%; in data set [2], 37.1%. Moreover, in the data set on Peritoneal macrophage, the Activity was 27.19%.
Regarding `OCc1cn(-c2ccccc2)nn1`, the inhibition in data set [1] is 30.1%; in data set [2] it was 10.9%. In addition, the Activity in the data set on Peritoneal macrophage worked out at 20.98%.
On to `CCCCC(=O)OCc1cn(-c2ccc(OC)cc2)nn1`, for which the inhibition in data set [1] turned out to be 8.15%. Further, the Activity with Peritoneal macrophage turned out to be 46.3%.
